Measured values from patent US8778964B2, “Hydroxy-substituted imidazo[1,2-a]-pyridinecarboxamides and their use” (Bayer Pharma Aktiengesellschaft, priority 2012, dated 2014).
Structures can show the parent of a compound that is named as a salt.

system: recombinant guanylate cyclase reporter cell line; experiment: Action on recombinant guanylate cyclase reporter cell line (MEC); format: cell-based; details: in some cases mean values obtained from individual determinations
Description: B-2. Action on Recombinant Guanylate Cyclase Reporter Cell Line
The cellular action of the compounds according to the invention is determined on a recombinant guanylate cyclase reporter cell line, as described in F. Wunder et al., Anal. Biochem. 339, 104-112 (2005).
Representative values (MEC=minimal effective concentration) for the compounds according to the invention are shown in the following table (in some cases as mean values obtained from individual determinations): […]

| SMILES | minimal effective concentration [µM] |
| --- | --- |
| Cc1nc2c(OCc3c(F)cccc3F)cccn2c1C(=O)NCC(O)C(F)(F)F (single isomer, unassigned; ent-8) [Example 109, ent-8-[(2,6-Difluorobenzyl)oxy]-2-methyl-N-(3,3,3-trifluoro-2-hydroxypropyl)imidazo[1,2-a]-pyridine-3-carboxamide] | 0.1 |
| Cc1nc2c(OCc3c(F)cccc3F)cccn2c1C(=O)NC(C)(C)CO [Example 34, 8-[(2,6-difluorobenzyl)oxy]-N-(1-hydroxy-2-methylpropan-2-yl)-2-methylimidazo[1,2-a]-pyridine-3-carboxamide] | 0.3 |
| Cc1nc2c(OCc3c(F)cccc3F)cccn2c1C(=O)N[C@@H](CO)C(C)C [Example 29, 8-[(2,6-difluorobenzyl)oxy]-N-[(2R)-1-hydroxy-3-methylbutan-2-yl]-2-methylimidazo[1,2-a]-pyridine-3-carboxamide] | 0.1 |
| CCCC[C@@H](NC(=O)c1c(C)nc2c(OCc3c(F)cccc3F)cccn12)C(C)(C)O [Example 147, 8-[(2,6-Difluorobenzyl)oxy]-N-[(3R)-2-hydroxy-2-methylheptan-3-yl]-2-methylimidazo[1,2-a]-pyridine-3-carboxamide] | 0.1 |
| CCC(O)CNC(=O)c1c(C)nc2c(OCCC(C(F)(F)F)C(F)(F)F)cc(C)cn12 (racemic) [Example 174, rac-N-(2-hydroxybutyl)-2,6-dimethyl-8-[4,4,4-trifluoro-3-(trifluoromethyl)butoxy]imidazo[1,2-a]pyridine-3-carboxamide] | 3 |
| Cc1cc(OCCC(C(F)(F)F)C(F)(F)F)c2nc(C)c(C(=O)NCC(O)c3ccc(Cl)cc3)n2c1 (racemic) [Example 175, rac-N-[2-(4-chlorophenyl)-2-hydroxyethyl]-2,6-dimethyl-8-[4,4,4-trifluoro-3-(trifluoromethyl)butoxy]imidazo[1,2-a]pyridine-3-carboxamide] | 3 |
| Cc1cc(OCCC(C)C)c2nc(C)c(C(=O)NC(CCCC(F)(F)F)C(C)(C)O)n2c1 (single isomer, unassigned; ent-2) [Example 168, ent-2,6-Dimethyl-8-(3-methylbutoxy)-N-(7,7,7-trifluoro-2-hydroxy-2-methylheptan-3-yl)imidazo-[1,2-a]pyridine-3-carboxamide] | 3 |
| Cc1nc2c(OCc3c(F)cccc3F)cccn2c1C(=O)NC(CCCC(F)(F)F)C(C)(C)O (racemic) [Example 150, rac-8-[(2,6-difluorobenzyl)oxy]-2-methyl-N-(7,7,7-trifluoro-2-hydroxy-2-methylheptan-3-yl)imidazo[1,2-a]pyridine-3-carboxamide] | 0.03 |
| C[C@@H](CO)NC(=O)c1c(C(F)(F)F)nc2c(OCC3CCCCC3)cccn12 [Example 56, 8-(cyclohexylmethoxy)-N-[(2S)-1-hydroxypropan-2-yl]-2-(trifluoromethyl)imidazo[1,2-a]pyridine-3-carboxamide] | 1 |
| Cc1nc2c(OCc3c(F)cccc3F)cccn2c1C(=O)N[C@H]1CCC[C@@H]1O [Example 19, 8-[(2,6-difluorobenzyl)oxy]-N-[(1S,2S)-2-hydroxycyclopentyl]-2-methylimidazo[1,2-a]-pyridine-3-carboxamide] | 1 |
| CCCC[C@H](CO)NC(=O)c1c(C)nc2c(OCc3c(F)cccc3F)c(F)ccn12 [Example 177, 8-[(2,6-Difluorobenzyl)oxy]-7-fluoro-N-[(2R)-1-hydroxyhexan-2-yl]-2-methylimidazo[1,2-a]-pyridine-3-carboxamide] | 1 |
| CC[C@H](CO)NC(=O)c1c(C)nc2c(OCc3cccc(Cl)c3Cl)cccn12 [Example 45, 8-[(2,3-dichlorobenzyl)oxy]-N-[(2R)-1-hydroxybutan-2-yl]-2-methylimidazo[1,2-a]-pyridine-3-carboxamide] | 0.65 |
| Cc1nc2c(OCc3c(F)cccc3F)cccn2c1C(=O)N[C@@H](CO)c1ccccc1 (racemic) [Example 104, rac-8-[(2,6-difluorobenzyl)oxy]-N-[(1R)-2-hydroxy-1-phenylethyl]-2-methylimidazo[1,2-a]pyridine-3-carboxamide trifluoroacetate] | 0.1 |
| CCCC[C@H](CO)NC(=O)c1c(C)nc2c(OCc3c(F)cccc3F)cc(C#N)cn12 [Example 157, 6-Cyano-8-[(2,6-difluorobenzyl)oxy]-N-[(2R)-1-hydroxyhexan-2-yl]-2-methylimidazo[1,2-a]-pyridine-3-carboxamide] | 0.065 |
| Cc1nc2c(OCc3c(F)cccc3F)cccn2c1C(=O)NC(CC(F)(F)F)C(C)(C)O (single isomer, unassigned; ent-8) [Example 154, ent-8-[(2,6-Difluorobenzyl)oxy]-2-methyl-N-(1,1,1-trifluoro-4-hydroxy-4-methylpentan-3-yl)-imidazo[1,2-a]pyridine-3-carboxamide (enantiomer B)] | 0.03 |
| CCCC[C@H](CO)NC(=O)c1c(C2CC2)nc2c(OCc3c(F)cccc3F)cccn12 [Example 134, 2-cyclopropyl-8-[(2,6-difluorobenzyl)oxy]-N-[(2R)-1-hydroxyhexan-2-yl]imidazo[1,2-a]-pyridine-3-carboxamide] | 0.3 |

| SMILES | minimal effective concentration [µM] |
| --- | --- |
| CCCC[C@@H](NC(=O)c1c(C)nc2c(OCc3c(F)cccc3F)cccn12)C(O)C(F)(F)F (stereo partly drawn) [Example 141, 8-[(2,6-Difluorobenzyl)oxy]-2-methyl-N-[(3R)-1,1,1-trifluoro-2-hydroxyheptan-3-yl]imidazo[1,2-a]pyridine-3-carboxamide] | 0.1 |
| COC(=O)[C@H](CO)NC(=O)c1c(C)nc2c(OCc3c(F)cccc3F)cccn12 [Example 164, Methyl N-({8-[(2,6-difluorobenzyl)oxy]-2-methylimidazo[1,2-a]pyridin-3-yl}carbonyl)-L-serinate] | 0.2 |
| Cc1nc2c(OCc3c(F)cccc3F)cccn2c1C(=O)N[C@H](C)CO [Example 118, 8-[(2,6-difluorobenzyl)oxy]-N-[(2R)-1-hydroxypropan-2-yl]-2-methylimidazo[1,2-a]-pyridine-3-carboxamide] | 0.3 |
| CCCC[C@H](CO)NC(=O)c1cnc2c(OCc3c(F)cccc3F)cccn12 [Example 62, 8-[(2,6-difluorobenzyl)oxy]-N-[(2R)-1-hydroxyhexan-2-yl]imidazo[1,2-a]pyridine-3-carboxamide] | 0.3 |
| CCCC[C@H](CO)NC(=O)c1c(C)nc2c(OCc3c(F)cccc3F)cc(N3CCOCC3)cn12 [Example 63, 8-[(2,6-difluorobenzyl)oxy]-N-[(2R)-1-hydroxyhexan-2-yl]-2-methyl-6-(morpholin-4-yl)imidazo[1,2-a]pyridine-3-carboxamide] | 3 |
| Cc1nc2c(OCc3c(F)cccc3F)cccn2c1C(=O)NCCO [Example 21, 8-[(2,6-difluorobenzyl)oxy]-N-(2-hydroxyethyl)-2-methylimidazo[1,2-a]pyridine-3-carboxamide] | 1 |
| CC[C@H](CO)NC(=O)c1c(C)nc2c(OCc3c(F)cccc3F)cccn12 [Example 43, 8-[(2,6-Difluorobenzyl)oxy]-N-[(2R)-1-hydroxybutan-2-yl]-2-methylimidazo[1,2-a]pyridine-3-carboxamide] | 0.16 |
| CCCC[C@@H](NC(=O)c1c(C)nc2c(OCc3c(F)cccc3F)cccn12)C(C)O (stereo partly drawn) [Example 140, 8-[(2,6-Difluorobenzyl)oxy]-N-[(3R)-2-hydroxyheptan-3-yl]-2-methylimidazo[1,2-a]pyridine-3-carboxamide] | 0.03 |
| Cc1nc2c(OCc3c(F)cccc3F)cccn2c1C(=O)NC(CO)CO [Example 26, 8-[(2,6-difluorobenzyl)oxy]-N-(1,3-dihydroxy-propan-2-yl)-2-methylimidazo[1,2-a]pyridine-3-carboxamide] | 2 |
| Cc1nc2c(OCc3c(F)cccc3F)cccn2c1C(=O)NCCC(C)O (racemic) [Example 28, (rac)-8-[(2,6-difluorobenzyl)oxy]-N-(3-hydroxybutyl)-2-methylimidazo[1,2-a]pyridine-3-carboxamide] | 0.65 |
| CCCCC(NC(=O)c1c(C)nc2c(OCCC(C)C)cc(C)cn12)C(C)(C)O (stereo not drawn) [Example 167, ent-N-(2-Hydroxy-2-methylheptan-3-yl)-2,6-dimethyl-8-(3-methylbutoxy)imidazo[1,2-a]pyridine-3-carboxamide] | 2 |
| CCCC[C@H](CO)NC(=O)c1c(C)nc2c(OCc3c(C)cccc3C)cccn12 [Example 13, 8-[(2,6-dimethylbenzyl)oxy]-N-[(2R)-1-hydroxyhexan-2-yl]-2-methylimidazo[1,2-a]pyridine-3-carboxamide] | 3 |
| Cc1nc2c(OCc3c(F)cccc3F)cccn2c1C(=O)NCC(C)(C)CO [Example 41, 8-[(2,6-difluorobenzyl)oxy]-N-(3-hydroxy-2,2-dimethylpropyl)-2-methylimidazo[1,2-a]-pyridine-3-carboxamide] | 3 |
| CCCC[C@H](CO)NC(=O)c1c(C)nc2c(OCc3cccc(Cl)c3Cl)cccn12 [Example 9, 8-[(2,3-dichlorobenzyl)oxy]-N-[(2R)-1-hydroxy-hexan-2-yl]-2-methylimidazo[1,2-a]pyridine-3-carboxamide] | 0.5 |
| Cc1nc2c(OCc3c(F)cccc3F)cccn2c1C(=O)NCC(O)COc1ccc(F)cc1 (centres unmarked) [Example 136, 8-[(2,6-difluorobenzyl)oxy]-N-[3-(4-fluorophenoxy)-2-hydroxypropyl]-2-methylimidzao[1,2-a]pyridine-3-carboxamide] | 3 |

same assay, conditions: in some cases mean values obtained from individual determinations, trifluoroacetate

| SMILES | minimal effective concentration [µM] |
| --- | --- |
| Cc1nc2c(OCc3c(F)cccc3F)cccn2c1C(=O)NC(CO)CCCC(F)(F)F (racemic) [Example 102, rac-8-[(2,6-difluorobenzyl)oxy]-2-methyl-N-(6,6,6-trifluoro-1-hydroxyhexan-2-yl)-imidazo[1,2-a]pyridine-3-carboxamide trifluoroacetate] | 0.1 |
